Measured values: publication PMC11056991, “Promising Anticancer Prodrugs Based on Pt(IV) Complexes with Bis-organosilane Ligands in Axial Positions” (Journal of Medicinal Chemistry, 2024)
Like-named read-outs stand apart in the source and are kept apart here.

What was measured:
[1] = system: HT-29 human colon cancer cells; conditions: MTT, Figure S14E
Procedure: Cells were maintained at 37 °C in a humidified atmosphere containing 5% CO2.

[2] = system: HIEC6 human healthy intestinal cells; assay: MTT cell viability assay, HIEC6; format: cell-based; conditions: for IC50: 48 h
Procedure: HIEC6 human healthy intestinal cells and HCT 116 and HT-29 human colon cancer cells were supplied by ATCC. Colon cancer cells were cultured in Dulbecco’s modified Eagle’s medium (DMEM) for HCT 116 and HT-29 supplemented with fetal bovine serum (10%). HIEC6 cells were cultured in Opti-MEM supplemented with fetal bovine serum (4%), HEPES (20 mM), glutamine (10 mM), and epidermal growth factor (10 ng/mL). Cells were maintained at 37 °C in a humidified atmosphere containing 5% CO2. Cells were seeded at 30% confluence in DMEM for HCT 116 and in Opti-MEM for HIEC6; after cell adhesion, HIEC6 cells were cultured in DMEM for 24h before being treated. All cells were treated with the indicated components at concentrations of 0.25–50 μM and incubated for 1–5 days as specified.
The MTT assay relies on a colorimetric reaction based on the capacity of living cells to reduce MTT to formazan and change the color to purple, which is easily measured by colorimetry. This assay estimates the cellular viability after the indicated treatments. Cells were treated with MTT (1:10 in culture medium) and incubated at 37 °C for 3 h for HCT 116 and HT-29 or 6 h for HIEC6. After removal of the medium, the formazan was resuspended in DMSO, transferred to p96 plates, and analyzed by a SpectraFLUOR (Tecan) at 542 nm. In all cases, viability was measured in duplicates of each point in three independent experiments.

HCT 116 cells = assay: Trypan blue exclusion test; format: cell-based, human; conditions: HCT 116, 0.5 μM, 2 days
Procedure: HCT 116 cells were harvested by trypsinization followed by centrifugation at 500g for 5 min. The cell pellet was resuspended in 1 mL of PBS. Equal volumes of trypan blue (Bio-Rad cat. no. 1450021) 0.4% and cell suspension were mixed and incubated for 1–3 min at room temperature, and cell counting was carried out using a TC20 Automated Cell Counter (Bio-Rad cat. no. 1450102). The percentage of viable cells was calculated by dividing the number of viable cells per milliliter by the number total of cells per milliliter) × 100. Representative images were acquired using a Zeis light microscope with a 20× objective.

HCT 116 cancer cells = conditions: data not shown
Procedure: Cell were trypsinized, centrifuged at 500g for 5 min, resuspended in PBS, and stained with 7-aminoactinomycin D (7AAD, Santa Cruz Biotechnology), a DNA intercalating dye excluded from viable cells due to membrane impermeability. The 7AAD was excited at 546 nm and analyzed at 656 nm. Only apoptotic and necrotic cells are stained by these dyes. After incubation for 50 min in the dark at 37 °C, the cells were analyzed by flow cytometry (CytoFlex, Beckman Coulter). The percentages of cells stained with or without dyes were analyzed using the CytExpert Software (Beckman Coulter).

[3] = In vivo toxicity and tolerance in tumor-bearing mice; parameters: species or system athymic nude Foxn1nu mice
Description: The in vitro results encouraged us to explore the translational potential in a preclinical in vivo model of nude mice with grafted tumor cells. […] Tumor growth was monitored until tumors in the control group reached the ethically allowed size. […] On the other hand, many types of cancer cause a general increase in lactate dehydrogenase (LDH), and it is considered a nonspecific tumor marker.[57] Both treatments reduced LDH levels compared to those of untreated animals (PBS), reflecting the response to treatment.
To establish the subcutaneous tumor, 2 × 10^6 HCT 116 colon carcinoma cells were resuspended 1:1 in culture media and Matrigel (BD) and injected subcutaneously. Six to eight week old female athymic nude Foxn1nu mice (Harlan Iberica) were used for each point. […] Two therapeutic approaches were compared: acute and chronic (see diagram in Figure 5). Acute treatment was performed (three injections of 10 mg/kg); chronic treatment relied on injections of 1 mg/kg every 3–4 days. […] Tumor growth was monitored by personnel unaware of the group distribution. Experiments were finalized when control animals achieved the maximum tumor size approved by the Ethical Committee. Animals were sacrificed by euthanasia by CO2 inhalation. Selected organs were collected from each animal for histopathological analysis. Samples were fixed in 4% paraformaldehyde for 2 h followed by cold 70% ethanol. Plasma serum was collected to determine hepatic and renal toxicity of treatments using a SPIN200E automatic bioanalyzer (Spinreact).

[4] = mice after treatment, versus cisplatin

With `CC(C)N.CC(C)N.CCO[Si](CCCNC(=O)[O][Pt]([Cl])([Cl])[O]C(=O)NCCC[Si](OCC)(OCC)OCC)(OCC)OCC` [Pt(IV)-biSi-2, cis-Dichloro(diisopropylamine)-trans-[3-(triethoxysilyl)propylcarbamate]platinum(IV)] the “Cytotoxic effect on colon cancer cells (HT-29)” value [1] was “strong cytotoxic effect”, the “Fold higher concentration needed to reduce nontumorigenic intestinal cell viability by 50%” value ([2]; IC50 HIEC6 versus IC50 HCT 116) was 3.7 fold and the “Cell viability, HIEC6 0.5uM 2 days” value ([2]; MTT, 0.5 uM, 2 days) was 92.5 ± 0.9%. For the same molecule, the “Cell viability, HIEC6 0.5uM 5 days” value ([2]; MTT, 0.5 uM, 5 days) was 84.1 ± 4.7%, the “Reduction in viability of healthy cells (HIEC6)” value ([2]; MTT, 5 μM, 2 days) was 60% and the “Cell viability, HIEC6 5uM 2 days” value ([2]; MTT, 5 uM, 2 days, (final complexes, Figure 3B)) was 41.2 ± 1.5%. For the same molecule, the IC50 ([2]; MTT, Figure 3C and text, read-out: IC50 (μM), HIEC6) was 3.47 µM, the IC50 ([2]; MTT, supplementary CSV, read-out: IC50 (uM) HIEC6) was 3.5 ± 0.6 µM and the “Cell viability, HIEC6 […] 2 days” value ([2]; MTT, 2 days) was 97.8 ± 4.0%. The “Cell viability, HIEC6 […] 2 days” value ([2]; MTT, second (last) column of this head) was 98.8 ± 6.1%, the “Reduction of viability by trypan blue staining” value (HCT 116 cells) was “approximately 60%” and the “Cytotoxicity by flow cytometry, HCT 116” value (HCT 116 cancer cells) was “stronger effect”. For the same molecule, the “Side effects (weight loss greater than 5% or abnormal postures) or deaths” value ([3]; acute and chronic treatment) was “No side effects (weight loss greater than 5% or abnormal postures) or deaths of the mice were observed”, the “Hepatic toxicity (uric acid and GPT levels in plasma)” value [3, 4] was “significantly lower” and the “Renal toxicity (creatinine levels in plasma)” value [3, 4] was “significantly lower”.
